The results in this text go back to patent US12569507B2, “CAR T-cells for the treatment of bone metastatic cancer” (H. Lee Moffitt Cancer Center and Research Institute, Inc., priority 2018, dated 2026).

Where only a bound is given, the exact number is not on record here.

Assay [1] relates to Panc02.03 pancreatic cancer cells. The experiment in a line: IPP production in response to zoledronate, LC-MS/MS of cell extracts. The note with it: Panc02.03 cells, even after prolonged treatment with high doses. The format is cell-based. On the procedure: (§1) Following treatment of tumor cells with ZOL, IPP was measured in cell extracts by tandem LC-MS/MS, using AppCp as an internal standard. […] ZOL treatment was administered for 1 h or 18 h, at 2 different doses: 10 μM or 25 μM.
(§2) In order to verify that zoledronate effectively induces IPP accumulation in a model system, C4-2B-PSCA-Luc human CRPC prostate cancer cells were treated with 10 μM or 25 μM of zoledronate, for 1 h or 18 h. Intracellular IPP levels were measured using a semi-quantitative mass spectrometry assay. T47D breast cancer cells were used as positive control, and Panc02.03 pancreatic cancer cells were used as negative controls.

Another assay relates to T47D breast cancer cells. The assay is described as above. It is filed as cell-based. Particulars: 1 h, high-dose zoledronate. The protocol:
as §1, §2

For assay [2], the system named is C4-2B-PSCA cells. The experiment in a line: RTCA cytotoxicity with or without zoledronate. It is filed as cell-based, human. The note with it: γδ T-cells in combination with zoledronate. On the procedure:
(§3) Summary of RTCA analysis of C4-2B-PSCA, or control PSCA null C4-2B, cells co-cultured with γδ CAR-T cells, or untransduced controls (UT). FIGS. […] show tumor cells without ZOL pretreatment. FIGS. 6C and 6D show tumor cells with 2 h ZOL pretreatment. FIGS. 6A and 6C show tumor cell viability 2 h post co-culture. FIGS. 6B and 6D show 30 h post co-culture.
(§4) The CAR- and TCR-mediated mechanism of tumor cell recognition were tested using the CRPC C4-2B cell line.

For assay [3], the system named is Parental C4-2B cells (PSCA null). The experiment in a line: RTCA cytotoxicity with or without zoledronate. It is filed as cell-based, human. The note with it: γδ T-cells in combination with zoledronate. On the procedure: as §3, §4
The subject of assay [4] is C4-2B luciferase expressing cells. The assay can be described thus: Intratibial C4-2B bone metastatic CRPC model, γδ T-cells with zoledronate or vehicle. It is filed as in vivo, NSG mice. The source says: FIGS. 7A to 7D show C4-2B cells inoculated into NSG mice and treated with either zoledronate (ZOL) or vehicle control. After establishment and randomization mice (n=15/group) were inoculated with 3.5×10^6 […]. Subsets of mice were removed from the study at 1, 3 and 5 days late. […] Number illustrate the percentage of γδ T-cells in the total marrow analysis over time. […] FIG. 7C is a graph showing RLUs quantitated over time and the growth rates calculated for each group. Asterisk indicates statistical significance. Mice at the final time point were assessed for γδ T-cell localization (CD3), apoptosis (cleaved caspase-3; CC3) and proliferation (phospho histone H3; pHH3). […] Arrows indicate positivity. DAPI was used as a nuclear counterstain.
Next, the anti-tumor activity of γδ T-cells on established bone metastatic CRPC lesions in vivo was assessed. NSG (NOD.Cg-Prkdcscid112rgtm1Wjl/SzJ) immunocompromised mice were intratibially inoculated with C4-2B luciferase expressing cells (1×10^5) and once established were randomized in zoledronate (0.1 mg/Kg) or vehicle (saline) groups (n=25 per group) based on relative luminescence unit (RLU) measurement. One week later, mice received tail vein injections of human γδ T-cells (3.5×10^6/mouse).
Groups of mice (n=5) were removed from the study 1, 3, 5 days subsequent to injection with tibias being flushed and assessed for human CD3 Vd2 content by flow cytometry. […] Bioluminescence was used as a correlate of tumor growth.

The subject of assay [5] is PSCA-expressing C42B prostate cancer cells. The assay can be described thus: Interferon-γ ELISA of γδ CAR-T coculture supernatants. It is filed as cell-based. The source says: Four variants of the anti-PSCA CAR were generated containing either CD27 (CD27z), CD28 (CD28z), or 4-1BB (BBz) costimulation. The fourth variant contains a CD27 costimulatory domain where the TRAF-binding site has been replaced with an inert flexible linker (G4S). γδ CAR-T cells expressing either CAR variant (or GFP as controls) were generated, and cocultured with PSCA-expressing C42B prostate cancer cells, in presence or absence of zoledronate, at the indicated doses. The presence of interferon-γ in the supernatants (measured by ELISA) was used as a marker of T cell activation. CAR-expressing T cells (but not untransduced or GFP-transduced cells) reacted to target cells by producing interferon-γ (solid bars).
A general note: ELISA stands for enzyme-linked immunosorbent assay.

For a further assay, the system named is CRPC C4-2BPSCA cell line. The assay can be described thus: Cytotoxicity of γδ (CAR)-T cells with or without ZOL. It is filed as cell-based. Particulars: ZOL 0.4 μM added to γδ CAR-T. The protocol: FIGS. 11A and 11B show zoledronate enhances γδ (CAR)-T cells cytotoxic effect.
(§5) γδ CAR-T cells recognize tumor cells via CAR and via TCR. The CAR- and TCR-mediated mechanisms of tumor cell recognition were tested using the CRPC C4-2BPSCA cell line. Cancer cells were treated with either untransduced (UT) control or CAR-expressing γδ T-cells, in the presence or absence of ZOL (0.4 μM). In presence of ZOL, control γδ T cells induced a cytotoxic effect at approx. 18 h, reflecting recognition of C4-2B-PSCA cells via TCR. […] The ability to induce a potent cytolytic effect with lesser cytokine production that can be modulated by ZOL is important since it may allow γδ (CAR-)T-cells to mediate more precise tumor killing, reducing the risk for complications related to massive cytokine release.

For assay [6], the system named is C4-2B-PSCA cells. The assay can be described thus: IFNγ ELISA of co-culture supernatants with increasing Zol. It is filed as cell-based. On the procedure:
IFNγ ELISA of co-culture supernatants of C4-2B-PSCA cells exposed to media (negative control) or the indicated T cells, in presence of increasing concentrations of Zol (0, 0.4 and 0.8 μM).
as §5

The subject of another assay is γδ (CAR)-T cells. The assay can be described thus: IL-2 secretion by γδ (CAR)-T cells. It is filed as cell-based.
The mark [7] stands for this setting: tibias at study endpoint, vs control.

With `O=P(O)(O)C(O)(Cn1ccnc1)P(=O)(O)O` [zoledronate], the “Intracellular IPP levels” value in [1] was “did not produce IPP”; with T47D breast cancer cells, “detectable over background”. In addition, the “viability of tumor cells, early time point” value with C4-2B-PSCA cells [2] was “less evident”; in assay [3], “notable reduction in the viability”. In assay [4] (setting [7]), the “apoptotic (cleaved caspase-3) cancer cells” value is given as “increased”. Besides, the “proliferative (phospho-Histone H3) cancer cells” value in assay [4] (setting [7]) was “decreased”. Also, the “C4-2B growth rate (bioluminescence)” value in assay [4] (zoledronate group vs controls, with γδ T-cells) is given as “significantly slower”. Besides, the “effect of zoledronate on target recognition by control γδ T cells” value in assay [5] (GFP-transduced and untransduced γδ T cells) was “induced target recognition by GFP-transduced and untransduced γδ T cells”. In addition, the “effect of zoledronate on interferon production by CAR-T cells” value in assay [5] (γδ CAR-T cells, coculture) is reported as “enhanced interferon production by CAR-T cells”. In the assay with CRPC C4-2BPSCA cell line, the “effect of ZOL on cytolytic activity of γδ CAR-T” value is recorded as “greatly enhanced”. Also, the “time to complete elimination of tumor cells” value with CRPC C4-2BPSCA cell line is no more than 45 h. The “effect of ZOL on IFNγ secretion” value with C4-2B-PSCA cells [6] (coculture of γδ (CAR-)T-cells with C4-2BPSCA cells) is reported as “enhanced IFNγ secretion”; in the assay with C4-2B-PSCA cells [6] (αβ T cells used) it was “not observed”. The “IL-2 secretion by γδ (CAR)-T cells” value in the assay on γδ (CAR)-T cells is listed as “increases IL-2 secretion”.
